For data set [1] the following is noted: cited from earlier work.
Data set [2] is described as follows: Dose range study, pharmacokinetics: plasma concentrations (Example 5). Type of data set: in vivo, human. Conditions: for systemic absorption: topical application at 7.5% strength, twice daily for 12 weeks. On the procedure: A subset of study centers enrolled subjects for an assessment of PK. Blood was to be collected from approximately 10 subjects per treatment group. At the Day 1 and Week 8 visits, a predose blood sample was collected prior to the first application of study drug for the day; samples were then collected at 1, 2, 3, and 4 hours after application of study drug.

The nature of data set [3]: Solubility in solvents / vehicle. The class given is physicochemical. From the text:
In various embodiments, the dermatologically acceptable vehicle comprises dimethyl isosorbide and one or more alcohols. […] DMI is freely miscible with alcohols such as ethanol, isopropanol (IPA), polyols such as polyethylene glycol (PEG 200 or PEG 400), or a mixture thereof. By adjusting the relevant amounts of DMI and the alcohol(s), the solubility and saturation of the active ingredient in the dermatological formulation can be adjusted to maximize the thermodynamic activity of the active ingredient in the gel. In a specific embodiment, the dermatologically acceptable vehicle comprises, by weight ratios, 50 parts ethanol, 20 parts IPA, 15.5 parts PEG400, and 12.5 parts DMI. The vehicle is typically a clear gel, and bears the same appearance with or without the active ingredient.
In certain embodiment, the crystalline product form is a white crystalline solid with a low-melting point (64-66° C.), having solubility of about 90 mg/g (±5 mg/g) in a solvent system comprising Ethanol/IPA/PEG 400/DMI at 50/20/15.5/12.5 (w/w).

The subject of data set [4] is acne vulgaris on the face. Description: Dose range study, efficacy (Example 5). Type of data set: in vivo, human. Conditions: for LS mean change in noninflammatory lesion counts: Week 12; for LS mean change in inflammatory lesion counts / percentage of subjects achieving minimum 2-grade improvement in IGA score: baseline to Week 12. On the procedure: Dose ranges were determined in adult subjects with acne vulgaris on the face. The study was a randomized, vehicle controlled, parallel group study designed to assess the efficacy and safety of the active formulations comprising a compound of Formula (Ia) at a concentration of 7.5% BID, 7.5% QD, and 4.0% QD, respectively. The results were compared to those of vehicle formulation (BID or QD) on subjects with moderate to severe facial acne. A total of 420 adult subjects were randomized to active formulations (7.5% BID, 7.5% QD, and 4.0% QD) and vehicle (BID and QD) in a 2:2:2:1:1 fashion. Study treatments continued for 12 weeks. Subjects returned to the study clinic at Weeks 1, 2 (phone call only), 4, 8 and 12 (study exit). Primary efficacy endpoints for this study were 1) the mean absolute change from baseline to Week 12 in inflammatory and noninflammatory lesion counts and 2) the proportion of subjects who achieved a 2-grade improvement in the IGA from baseline to Week 12. Absolute change from baseline to Week 12 in inflammatory and non-inflammatory lesion counts was analyzed using an analysis of covariance (ANCOVA) model with a factor of treatment and the respective baseline lesion count as a covariate. The proportion of subjects who are dichotomized to success (minimum 2-grade improvement from baseline in IGA score) at Week 12 was analyzed using a Cochran-Mantel-Haenszel (CMH) test. Exploratory analyses were conducted for linearity of a dose response for the proportion of subjects dichotomized to an IGA success.

Data set [5] in a line: Stability studies on non-GMP and GMP material. Type of data set: physicochemical. On the procedure:
Stability studies conducted on non-GMP and GMP material have shown chemical stability the compound of Formula (Ia) for 24 months at 5° C. and 25° C./60% Relative Humidity (RH); and for 6 months at 40° C./75% RH.

Data set [6] can be described thus: Dose range study, safety and tolerability (Example 5). The class given is in vivo, human. Conditions: 4.0% QD, 7.5% QD and 7.5% BID, 12-week treatment period. On the procedure: Safety was assessed through adverse events (AEs), local skin responses (LSRs, determined by the presence and severity of erythema, dryness, peeling, burning/stinging, and pruritus), laboratory tests (serum chemistry, and hematology), vital signs, and physical examinations.

This is an account of results in patent US20180028487A1, “DERMATOLOGICAL FORMULATIONS OF 2-(2-ETHOXY-2-OXOETHYL)(METHYL)AMINO-2-OXOETHYL 5-(TETRADECYLOXY)FURAN-2-CARBOXYLATE” (Dermira Inc., priority 2016, published 2018).

For `CCCCCCCCCCCCCCOc1ccc(C(=O)O)o1` [TOFA, 5-(tetradecyloxy)-2-furoic acid, reference compound], in data set [1], the “bioavailability through the skin” value is “poor”. Further, the systemic absorption result in data set [2] was “little or no”.

In the case of `CCCCCCCCCCCCCCOc1ccc(C(=O)OCC(=O)N(C)CC(=O)OCC)o1` [Formula (Ia), 2-((2-ethoxy-2-oxoethyl)(methyl)amino)-2-oxoethyl 5 (tetradecyloxy) furan-2-carboxylate], the solubility result is on record as “about 90 mg/g” in data set [3] (crystalline product form, solvent system Ethanol/IPA/PEG 400/DMI at 50/20/15.5/12.5 (w/w)) and “about 125 mg/g” in data set [3] (in dimethyl isosorbide (DMI)). For the same compound, the figures for the “LS mean change in noninflammatory lesion counts” value in data set [4] (4.0% QD), in data set [4] (7.5% BID) and in data set [4] (7.5% QD) were −15.3, −17.5 and −13.4, respectively. The “LS mean change in inflammatory lesion counts” value was −14.6 in data set [4] (4.0% QD), −15.0 in data set [4] (7.5% BID) and −14.5 in data set [4] (7.5% QD). The “percentage of subjects achieving minimum 2-grade improvement in IGA score” value is on record as 21.6% in data set [4] (4.0% QD) and 25.9% in data set [4] (7.5% BID). Moreover, the chemical stability in data set [5] (5° C.) was 24 months; in data set [5] (25° C./60% Relative Humidity (RH)), 24 months; in data set [5] (40° C./75% RH) it was 6 months. Moreover, the “stability of the crystal form” value in data set [5] (5° C.) was “up to 36 months”; in data set [5] (25° C./60% RH) it was “up to 36 months”; in data set [5] (30° C./65% RH), “up to 27 months”. Moreover, the tolerability entry in data set [6] is recorded as “well tolerated”. Further, the “plasma concentration of Compound of Formula (Ia)” value in data set [2] (Day 1, topical, all but one subject) was “undetectable”; in data set [2] (Week 8, all tested subjects), “undetectable”. For the same compound, in data set [2] (human, plasma, topical, Day 1, one subject, one time point (2 hours post-dosing), read-out: plasma concentration of Compound of Formula (Ia)), the concentration at 2 h is 0.304 ng/mL. In addition, the systemic absorption entry in data set [2] is listed as “little or no”.
